In patent publication US12509451B2, “Heteroaryl amide inhibitors of CD38” (NAPA THERAPEUTICS LTD., priority 2020, dated 2025):

Columns and labels:
[1] = molecular target: T1, recombinant human CD38 Protein (Homo sapiens, UniProt P28907); assay: Fluorescence-based NAD+ hydrolase activity assay with human recombinant CD38 protein (Assay 3); type: biochemical; details: read-out: Assay 3 Arithmetic mean IC50
T1 construct: purchased R&D System
T1 sequence (P28907 1-300): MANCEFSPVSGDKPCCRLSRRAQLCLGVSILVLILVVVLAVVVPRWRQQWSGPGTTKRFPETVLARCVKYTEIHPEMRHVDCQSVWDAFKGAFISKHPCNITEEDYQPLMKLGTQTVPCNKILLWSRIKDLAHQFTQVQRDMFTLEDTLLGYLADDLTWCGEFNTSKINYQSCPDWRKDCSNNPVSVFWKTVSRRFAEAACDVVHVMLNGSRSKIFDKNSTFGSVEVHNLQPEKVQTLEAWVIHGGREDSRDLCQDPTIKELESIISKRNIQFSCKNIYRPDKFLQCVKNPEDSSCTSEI
Description: This protocol was modified from the following references (Muller et al. (1983); (Schultz et al. (2018); (Matalonga et al. (2017); and de Oliveira et al. (2018), supra.
NAD+ hydrolase activity of the human recombinant CD38 protein treated with test compounds was measured using a fluorescence-based assay. Briefly, recombinant human CD38 Protein (R&D System) was resuspended in 44 μl/well of Sucrose-Tris Buffer (Sucrose 0.25 M, Tris pH 7.4 40 mM) and plated in a 96-well black plate (CORNING) at a density of 10 ng/well.
(§1) Each test compound was received in a powder state and dissolved in DMSO as a 25 mM stock solution. Each test compound was serially diluted in order to generate a dose-response curve. The dilution series of each test compound in DMSO was prepared at 50× the concentrations to be assayed. Each test compound was diluted to generate a 5-fold dilution series of 8 concentrations from 20 μM to 0.256 nM in order to assay 8 final concentrations ranging from ranging from 400 nM to 25.6 pM. One μl of the 50× concentration compound series was added to each well of the plate containing 10 ng protein in Sucrose-Tris buffer.
The reaction was started adding nicotinamide 1,N^6-etheno-adenine dinucleotide (Sigma Aldrich) to reach a final concentration of 80 µM. The samples were excited at 321-15 nm and the emission of fluorescence was measured at 410-20 nm at 37° C. every minute for 1 hr in a Clariostar® microplate reader (BMG LABTECH). NAD+ hydrolase activity was calculated as the slope of the linear portion of the fluorescence-time curve using the MARS data analysis software (BMG LABTECH). The data were uploaded in the Collaborative Drug Design (CDD) Software and for each compound the IC50 was calculated by the software. […] For each plate, the z-factor was also calculated as a plate quality using the CDD software.

[2] = molecular target: T2, CD38 NAD+ hydrolase activity in NH7-dCas9 cells (Jurkat clone) (Homo sapiens, UniProt P28907); assay: Fluorescence-based NAD+ hydrolase activity assay with human T cell line NH7-dCas9 cells-Jurkat clone (Assay 1); details: read-out: Assay 1 Arithmetic mean IC50
T2 construct: The assay utilized CD38 expressing NH7-dCas9 cells (Jurkat clone); host or cells: NH7-dCas9 cells (Jurkat clone)
T2 sequence (P28907 1-300): T1 sequence (P28907 1-300)
Description: For the modified assay, the performance validation criteria of the assay as a High Throughput Screening (HTS): Z-factor within the plate was greater than 0.89 (optimal HTS z-factor >0.5) and the Intra-plate, inter-plate and day to day variability (CV) was less than 20%.
NAD+ hydrolase activity of a human T cell line treated with test compounds was measured using a fluorescence-based assay. NH7-dCas9 cells (Jurkat clone) were provided by the Weissman Lab (UCSF 1700 4th St., Byers Hall, Room 403B, San Francisco, CA 94158-2330). Briefly, cells were centrifuged, resuspended in 44 μl PBS/10^6 cells and plated in a 96 well black plate (CORNING) at a density of 1×10^6 per well.
as §1, with “at 50 times” for “at 50×”, “from” for “from ranging from”, “containing 1×10^6 cells” for “containing 10 ng protein”, “in PBS.” for “in Sucrose-Tris buffer.”
Each plate had the following intra plate controls: 3 wells containing cells treated with vehicle only (DMSO), 3 wells of cells treated with the reference compound 78c at a final concentration of 50 nM and 2 wells containing only PBS (used as a background value).
The reaction was started by adding nicotinamide 1,N^6-etheno-adenine dinucleotide (Sigma Aldrich) to reach a final concentration of 80 µM. The samples were excited at 321-15 nm, and the emission of fluorescence was measured at 410-20 nm at 37° C. every minute for 1 hr in a Clariostar® microplate reader (BMG LABTECH). NAD+ hydrolase activity was calculated as the slope of the linear portion of the fluorescence-time curve using the MARS data analysis software (BMG LABTECH). The data were uploaded in the Collaborative Drug Design (CDD) Software and for each compound the IC50 was calculated by the software. Each compound was tested in 3 independent experiments on 3 separate days to establish the reproducibility of the results. For each plate, the z-factor was also calculated as a plate quality using the CDD software.

| Compound | IC50 [1] | IC50 [2] |
| --- | --- | --- |
| Cc1cc(NC(=O)c2cccc(-n3ccnc3)n2)cc(C)n1 [Compound 7] | 1 to 50 nM | < 1 nM |
| O=C(Nc1ccnc(F)c1)c1cccc(-n2ccnc2)n1 [Compound 8] | 1 to 50 nM | < 1 nM |
| O=C(Nc1ccc(C(F)(F)F)nc1)c1cccc(-n2ccnc2)n1 [Compound 9] | 1 to 50 nM | 1 to 50 nM |
| Cc1cc(NC(=O)c2cccc(-n3ccnc3)n2)ccn1 [Compound 11] | 1 to 50 nM | 1 to 50 nM |
| O=C(Nc1cccnc1)c1cccc(-n2ccnc2)n1 [Compound 20] | 1 to 50 nM | 1 to 50 nM |
| O=C(Nc1ccc(F)nc1)c1cccc(-n2ccnc2)n1 [Compound 22] | 1 to 50 nM | 1 to 50 nM |
| O=C(Nc1ccncn1)c1cccc(-n2ccnc2)n1 [Compound 24] | 1 to 50 nM | 1 to 50 nM |
| COC(=O)c1ccc(NC(=O)c2cccc(-n3ccnc3)n2)cn1 [Compound 27] | 1 to 50 nM | 1 to 50 nM |
| O=C(Nc1ccnc(C(F)(F)F)c1)c1cccc(-n2ccnc2)n1 [Compound 28] | 1 to 50 nM | < 1 nM |
| O=C(Nc1ccnc(C(F)(F)F)c1)c1cc(OCC2CCOCC2)cc(-n2ccnc2)n1 [Compound 30, 6-(1H-imidazol-1-yl)-4-((tetrahydro-2H-pyran-4-yl)methoxy)-N-(2-(trifluoromethyl)pyridin-4-yl)picolinamide] | 1 to 50 nM | < 1 nM |
| COCCOc1cc(C(=O)Nc2ccnc(C(F)(F)F)c2)nc(-n2ccnc2)c1 [Compound 31, 6-(1H-imidazol-1-yl)-4-(2-methoxyethoxy)-N-(2-(trifluoromethyl)pyridin-4-yl)picolinamide] | 1 to 50 nM | < 1 nM |
| CC1(Oc2cc(C(=O)Nc3ccnc(C(F)(F)F)c3)nc(-n3ccnc3)c2)COC1 [Compound 34, 6-(1H-imidazol-1-yl)-4-((3-methyloxetan-3-yl)oxy)-N-(2-(trifluoromethyl)pyridin-4-yl)picolinamide] | 1 to 50 nM | – |
| O=C(Nc1ccnc(C(F)(F)F)c1)c1cc(OC2CC2)nc(-n2ccnc2)n1 [Compound 40] | 1 to 50 nM | – |

Now from value to compound:

| IC50 [1] | IC50 [2] | Compound |
| --- | --- | --- |
| < 1 nM | < 1 nM | CNC(=O)c1ccc(NC(=O)c2cccc(-n3ccnc3)n2)cn1 [Compound 2] |
| 1 to 50 nM | < 1 nM | NC(=O)c1ccc(NC(=O)c2cccc(-n3ccnc3)n2)cn1 [Compound 3] |
| 1 to 50 nM | 1 to 50 nM | COc1cc(NC(=O)c2cccc(-n3ccnc3)n2)ccn1 [Compound 12] |
| 1 to 50 nM | 1 to 50 nM | O=C(Nc1ccncc1)c1cccc(-n2ccnc2)n1 [Compound 13] |
| 1 to 50 nM | 1 to 50 nM | Cc1ccc(NC(=O)c2cccc(-n3ccnc3)n2)cn1 [Compound 14] |
| 1 to 50 nM | 1 to 50 nM | CC(=O)N(C)c1ccc(NC(=O)c2cccc(-n3ccnc3)n2)cn1 [Compound 15] |
| 1 to 50 nM | 1 to 50 nM | CC(=O)Nc1ccc(NC(=O)c2cccc(-n3ccnc3)n2)cn1 [Compound 16] |
| 1 to 50 nM | 1 to 50 nM | COc1ccc(NC(=O)c2cccc(-n3ccnc3)n2)cn1 [Compound 18] |
| 1 to 50 nM | < 1 nM | O=C(Nc1ccnc(C(F)(F)F)c1)c1cc(OCc2ccccc2)cc(-n2ccnc2)n1 [Compound 29, 4-(benzyloxy)-6-(1H-imidazol-1-yl)-N-[2-(trifluoromethyl)pyridin-4-yl]pyridine-2-carboxamide] |
| < 1 nM | < 1 nM | O=C(Nc1ccnc(C(F)(F)F)c1)c1cc(OC2CC2)cc(-n2ccnc2)n1 [Compound 32, 4-cyclopropoxy-6-(1H-imidazol-1-yl)-N-(2-(trifluoromethyl)pyridin-4-yl)picolinamide] |
| < 1 nM | < 1 nM | CN(C)CCOc1cc(C(=O)Nc2ccnc(C(F)(F)F)c2)nc(-n2ccnc2)c1 [Compound 33] |
| < 1 nM | – | O=C(Nc1ccnc(C(F)(F)F)c1)c1cc(C2CC2)nc(-n2ccnc2)n1 [Compound 51, 6-cyclopropyl-2-(1H-imidazol-1-yl)-N-(2-(trifluoromethyl)pyridin-4-yl)pyrimidine-4-carboxamide] |
